Experimental findings from US10329295B2, “Pyrrolotriazine inhibitors of IRAK4 activity” (MERCK SHARP & DOHME CORP., priority 2015, dated 2019) are described below.

One may read the IC50 as the concentration that inhibits the measured activity by half. A lower IC50 goes with greater potency in that assay.

Structures can show the parent of a compound that is named as a salt.

Sequence of GST tagged IRAK4 (Q9NWZ3 whole entry): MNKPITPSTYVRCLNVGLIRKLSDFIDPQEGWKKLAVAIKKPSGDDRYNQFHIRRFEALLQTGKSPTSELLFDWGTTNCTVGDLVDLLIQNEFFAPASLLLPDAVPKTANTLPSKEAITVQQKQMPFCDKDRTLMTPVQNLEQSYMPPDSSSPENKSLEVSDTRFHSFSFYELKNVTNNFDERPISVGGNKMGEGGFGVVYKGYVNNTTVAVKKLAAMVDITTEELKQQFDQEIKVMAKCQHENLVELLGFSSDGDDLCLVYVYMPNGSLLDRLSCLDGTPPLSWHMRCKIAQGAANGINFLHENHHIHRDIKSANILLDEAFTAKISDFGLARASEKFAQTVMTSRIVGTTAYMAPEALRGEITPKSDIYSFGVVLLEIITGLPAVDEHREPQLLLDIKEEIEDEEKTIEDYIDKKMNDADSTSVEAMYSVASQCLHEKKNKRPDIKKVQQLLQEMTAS

The target in the assay is GST tagged IRAK4 (Homo sapiens (Human), UniProt Q9NWZ3). The experiment in a line: IRAK4 Kinase Assay (IMAP fluorescence polarization). The format is biochemical. The note with it: 0.5 nM GST tagged IRAK4, 100 μM ATP, 30 minutes at 25° C. The method, boiled down:
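Phosphorylation of a fluorescent peptide (100 nM) was detected by IMAP nanoparticle binding as increased fluorescence polarization. The enzyme was GST-tagged IRAK4 at 0.5 nM, with 100 μM ATP, 1 mM MgCl2 and Tris-HCl pH 7.2. ATP-initiated reactions ran 30 minutes at 25° C.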
`N[C@@H]1[C@H](Nc2ncc3ccc(C(=O)Nc4ccsc4Cl)n3n2)CCCC1(F)F` [Example 97, 2-{[(1R,2R)-2-amino-3,3-difluorocyclohexyl]amino}-N-(2-chlorothiophen-3-yl)pyrrolo[2,1-f][1,2,4]triazine-7-carboxamide trifluoroacetate] yielded an IC50 of 1910 nM.

With `Cn1cc(NC(=O)c2ccc3cnc(N[C@@H]4CCCC(F)(F)[C@@H]4N)nn23)c(C#N)n1` [Example 98, 2-{[(1R,2R)-2-amino-3,3-difluorocyclohexyl]amino}-N-(3-cyano-1-methyl-1H-pyrazol-4-yl)pyrrolo[2,1-f][1,2,4]triazine-7-carboxamide trifluoroacetate], the midpoint of inhibition, the IC50, lay at 86 nM. With `O=C(Nc1cscc1Cl)c1ccc2cnc(N3CCCNCC3)nn12` [Example 105, N-(4-chlorothiophen-3-yl)-2-(1,4-diazepan-1-yl)pyrrolo[2,1-f][1,2,4]triazine-7-carboxamide trifluoroacetate] the figure was 4820 nM. With `N[C@@H]1[C@H](Nc2ncc3ccc(C(=O)Nc4ccccc4Br)n3n2)CCCC1(F)F` [Example 106, 2-{[(1R,2R)-2-amino-3,3-difluorocyclohexyl]amino}-N-(2-bromophenyl)pyrrolo[2,1-f][1,2,4]triazine-7-carboxamide trifluoroacetate] the figure was 5810 nM; with `N[C@H]1CCCC[C@H]1Nc1ncc2ccc(C(=O)Nc3cscc3Cl)n2n1` [Example 109, 2-{[(1R,2S)-2-aminocyclohexyl]amino}-N-(4-chlorothiophen-3-yl)pyrrolo[2,1-f][1,2,4]triazine-7-carboxamide trifluoroacetate], 2 nM. With `Cn1cc(NC(=O)c2ccc3cnc(N4CC5CCC(C4)N5)nn23)c(C#N)n1` [Example 110, N-(3-cyano-1-methyl-1H-pyrazol-4-yl)-2-(3,8-diazabicyclo[3.2.1]oct-3-yl)pyrrolo[2,1-f][1,2,4]triazine-7-carboxamide trifluoroacetate] the figure was 117 nM; with `Cn1cc(NC(=O)c2ccc3cnc(N4C5CCC4CNC5)nn23)c(C#N)n1` [Example 111, N-(3-cyano-1-methyl-1H-pyrazol-4-yl)-2-(3,8-diazabicyclo[3.2.1]oct-8-yl)pyrrolo[2,1-f][1,2,4]triazine-7-carboxamide trifluoroacetate], 12 nM. For the molecule `Cn1cc(NC(=O)c2ccc3cnc(N4C5CCC4CNC5)nn23)c(C(F)F)n1` [Example 121, 2-(3,8-diazabicyclo[3.2.1]oct-8-yl)-N-[3-(difluoromethyl)-1-methyl-1H-pyrazol-4-yl]pyrrolo[2,1-f][1,2,4]triazine-7-carboxamide trifluoroacetate], the IC50 was determined as 0.5 nM.

Molecule `Cn1cc(NC(=O)c2ccc3cnc(N[C@@H]4CCCC[C@@H]4O)nn23)c(C#N)n1` [Example 122, N-(3-cyano-1-methyl-1H-pyrazol-4-yl)-2-{[(1R,2S)-2-hydroxycyclohexyl]amino}-pyrrolo[2,1-f][1,2,4]triazine-7-carboxamide trifluoroacetate] displayed an IC50 of 20 nM. Take `Cn1cc(NC(=O)c2ccc3cnc(N4CCC[C@H](N)C4)nn23)c(C#N)n1` [Example 123, 2-[(3S)-3-aminopiperidin-1-yl]-N-(3-cyano-1-methyl-1H-pyrazol-4-yl)pyrrolo[2,1-f][1,2,4]triazine-7-carboxamide trifluoroacetate]: the IC50 is 1 nM. The same measure for `Cn1cc(NC(=O)c2ccc3cnc(N[C@@H]4CCCNC4)nn23)c(C#N)n1` [Example 124, N-(3-cyano-1-methyl-1H-pyrazol-4-yl)-2-[(3R)-piperidin-3-ylamino]pyrrolo[2,1-f][1,2,4]triazine-7-carboxamide trifluoroacetate]: 0.8 nM.

For the molecule `Cn1cc(NC(=O)c2ccc3cnc(N4CCC[C@@H](N)C4)nn23)c(C#N)n1` [Example 125, 2-[(3R)-3-aminopiperidin-1-yl]-N-(3-cyano-1-methyl-1H-pyrazol-4-yl)pyrrolo[2,1-f][1,2,4]triazine-7-carboxamide trifluoroacetate], the IC50 amounted to 1 nM. `N[C@@H]1[C@H](Nc2ncc3ccc(C(=O)Nc4cscc4Cl)n3n2)CCCC1(F)F` [Example 126, 2-{[(1R,2R)-2-amino-3,3-difluorocyclohexyl]amino}-N-(4-chlorothiophen-3-yl)pyrrolo[2,1-f][1,2,4]triazine-7-carboxamide trifluoroacetate] returned an IC50 of 1270 nM. With `N#Cc1ccccc1NC(=O)c1ccc2cnc(N[C@@H]3CCCC(F)(F)[C@@H]3N)nn12` [Example 136, 2-{[(1R,2R)-2-amino-3,3-difluorocyclohexyl]amino}-N-(2-cyanophenyl)pyrrolo[2,1-f][1,2,4]triazine-7-carboxamide trifluoroacetate] the figure was 860 nM. The same measure for `N[C@@H]1[C@H](Nc2ncc3ccc(C(=O)Nc4ccccc4C(F)(F)F)n3n2)CCCC1(F)F` [Example 137, 2-{[(1R,2R)-2-amino-3,3-difluorocyclohexyl]amino}-N-[2-(trifluoromethyl)phenyl]-pyrrolo[2,1-f][1,2,4]triazine-7-carboxamide trifluoroacetate]: 2190 nM.

Regarding `N[C@@H]1[C@H](Nc2ncc3ccc(C(=O)Nc4ccccc4Cl)n3n2)CCCC1(F)F` [Example 138, 2-{[(1R,2R)-2-amino-3,3-difluorocyclohexyl]amino}-N-(2-chlorophenyl)pyrrolo[2,1-f][1,2,4]triazine-7-carboxamide trifluoroacetate], the concentration for half-maximal inhibition (IC50) was 1640 nM. With `N#Cc1sccc1NC(=O)c1ccc2cnc(N3CCC[C@@H](N)C3)nn12` [Example 141, 2-[(3R)-3-aminopiperidin-1-yl]-N-(2-cyanothiophen-3-yl)pyrrolo[2,1-f][1,2,4]triazine-7-carboxamide trifluoroacetate] the figure was 26 nM.

As for `N#Cc1cscc1NC(=O)c1ccc2cnc(N[C@@H]3CCCC[C@@H]3O)nn12` [Example 142, N-(4-cyanothiophen-3-yl)-2-{[(1R,2S)-2-hydroxycyclohexyl]amino}-pyrrolo[2,1-f][1,2,4]triazine-7-carboxamide trifluoroacetate], the IC50 turned out to be 1590 nM. The same measure for `N#Cc1cscc1NC(=O)c1ccc2cnc(N3CCC[C@H](N)C3)nn12` [Example 143, 2-[(3S)-3-aminopiperidin-1-yl]-N-(4-cyanothiophen-3-yl)pyrrolo[2,1-f][1,2,4]triazine-7-carboxamide trifluoroacetate]: 9 nM; for `N#Cc1cscc1NC(=O)c1ccc2cnc(N3CCC[C@@H](N)C3)nn12` [Example 144, 2-[(3R)-3-aminopiperidin-1-yl]-N-(4-cyanothiophen-3-yl)pyrrolo[2,1-f][1,2,4]triazine-7-carboxamide trifluoroacetate]: 18 nM; for `N#Cc1cscc1NC(=O)c1ccc2cnc(N[C@@H]3CCCNC3)nn12` [Example 145, N-(4-cyanothiophen-3-yl)-2-[(3R)-piperidin-3-ylamino]pyrrolo[2,1-f][1,2,4]triazine-7-carboxamide trifluoroacetate]: 3 nM.

`N#Cc1sccc1NC(=O)c1ccc2cnc(N[C@@H]3CCCNC3)nn12` [Example 146, N-(2-cyanothiophen-3-yl)-2-[(3R)-piperidin-3-ylamino]pyrrolo[2,1-f][1,2,4]triazine-7-carboxamide trifluoroacetate] came in with an IC50 of 4 nM.

Turning to `N#Cc1sccc1NC(=O)c1ccc2cnc(N[C@@H]3CCCC[C@@H]3O)nn12` [Example 147, N-(2-cyanothiophen-3-yl)-2-{[(1R,2S)-2-hydroxycyclohexyl]amino}-pyrrolo[2,1-f][1,2,4]triazine-7-carboxamide], the IC50 stood at 396 nM. With `Cn1cc(NC(=O)c2ccc3cnc(N4C[C@@H](N)C[C@@H](F)C4)nn23)c(C(F)(F)F)n1` [Example 148, 2-[(3S,5R)-3-amino-5-fluoropiperidin-1-yl]-N-[1-methyl-3-(trifluoromethyl)-1H-pyrazol-4-yl]pyrrolo[2,1-f][1,2,4]triazine-7-carboxamide] the figure was 20 nM; with `Cn1cc(NC(=O)c2ccc3cnc(N4C[C@H](N)C[C@@H](F)C4)nn23)c(C(F)(F)F)n1` [Example 149, 2-[(3R,5R)-3-amino-5-fluoropiperidin-1-yl]-N-[1-methyl-3-(trifluoromethyl)-1H-pyrazol-4-yl]pyrrolo[2,1-f][1,2,4]triazine-7-carboxamide trifluoroacetate], 0.8 nM. The same measure for `Cn1cc(NC(=O)c2ccc3cnc(N4C[C@@H](N)C[C@H](F)C4)nn23)c(C(F)(F)F)n1` [Example 150, 2-[(3S,5S)-3-amino-5-fluoropiperidin-1-yl]-N-[1-methyl-3-(trifluoromethyl)-1H-pyrazol-4-yl]pyrrolo[2,1-f][1,2,4]triazine-7-carboxamide trifluoroacetate]: 10 nM. With `Cn1cc(NC(=O)c2ccc3cnc(N4C[C@@H](N)C[C@@H](F)C4)nn23)c(C(F)F)n1` [Example 151, 2-[(3S,5R)-3-amino-5-fluoropiperidin-1-yl]-N-[3-(difluoromethyl)-1-methyl-1H-pyrazol-4-yl]pyrrolo[2,1-f][1,2,4]triazine-7-carboxamide formate] the figure was 0.8 nM; with `N#Cc1sccc1NC(=O)c1ccc2cnc(N3CCC[C@H](N)C3)nn12` [Example 152, 2-[(3S)-3-aminopiperidin-1-yl]-N-(2-cyanothiophen-3-yl)pyrrolo[2,1-f][1,2,4]triazine-7-carboxamide trifluoroacetate], 7 nM; with `N#Cc1cscc1NC(=O)c1ccc2cnc(N[C@@H]3CCCC(F)(F)[C@@H]3N)nn12` [Example 153, 2-{[(1R,2R)-2-amino-3,3-difluorocyclohexyl]amino}-N-(4-cyanothiophen-3-yl)pyrrolo[2,1-f][1,2,4]triazine-7-carboxamide trifluoroacetate], 120 nM.
